Test results reported in US10610522B2, “Methods for retreating irritable bowel syndrome (IBS)” (Salix Pharmaceuticals, Inc., priority 2014, dated 2020).
Where two headings read alike, the source gives them in different places.

How the values were obtained:
d-IBS = assay: IBS-QOL questionnaire in d-IBS patients, rifaximin 550 mg BID vs placebo; format: in vivo, human; details: Week 4
Procedure: Both groups received placebo for an additional 14 days after the initial 2-week treatment. Quality of life was assessed with the 34-item IBS-QOL questionnaire at baseline and 4 weeks after initiating treatment. Each item was scored on a 5-point scale (1=not at all; 2=slightly; 3=moderately; 4=quite a bit; and 5=extremely or a great deal). Results for composite and subscale scores were converted to a scale ranging from 0 to 100, with higher scores indicating better QOL.
Following a 2-week initial treatment period, both groups of patients received placebo for an additional 14 days. Quality of life was assessed via the 34-item IBS-QOL questionnaire at baseline and 4 weeks after initiating treatment. Each item was scored on a 5-point scale (1=not at all; 2=slightly; 3=moderately; 4=quite a bit; 5=extremely or a great deal); results for composite and subscale scores were converted to a scale ranging from 0 to 100, with higher scores indicating better QOL.

cytochrome P450 2C9 = cytochrome P450 2C9 (Homo sapiens, UniProt P11712); assay: In vitro cytochrome P450 inhibition; format: biochemical; details: 2 to 200 ng/mL
Sequence of cytochrome P450 2C9 (P11712 whole entry): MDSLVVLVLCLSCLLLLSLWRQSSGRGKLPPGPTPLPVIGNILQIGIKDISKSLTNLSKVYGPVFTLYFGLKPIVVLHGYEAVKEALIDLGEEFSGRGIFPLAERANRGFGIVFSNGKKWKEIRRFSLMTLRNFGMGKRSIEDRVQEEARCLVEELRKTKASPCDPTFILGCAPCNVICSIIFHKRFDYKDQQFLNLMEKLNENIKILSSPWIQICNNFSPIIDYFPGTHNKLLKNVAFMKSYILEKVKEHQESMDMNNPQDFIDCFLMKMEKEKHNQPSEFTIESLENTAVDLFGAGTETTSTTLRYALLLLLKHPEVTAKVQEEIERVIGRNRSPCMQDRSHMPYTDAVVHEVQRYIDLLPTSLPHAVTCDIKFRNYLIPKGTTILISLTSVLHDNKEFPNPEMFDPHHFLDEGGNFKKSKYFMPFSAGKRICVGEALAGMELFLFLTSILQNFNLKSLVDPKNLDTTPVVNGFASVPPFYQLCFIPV

cytochrome P450 2D6 = cytochrome P450 2D6 (Homo sapiens, UniProt P10635); assay: In vitro cytochrome P450 inhibition; format: biochemical; details: 2 to 200 ng/mL
Sequence of cytochrome P450 2D6 (P10635 whole entry): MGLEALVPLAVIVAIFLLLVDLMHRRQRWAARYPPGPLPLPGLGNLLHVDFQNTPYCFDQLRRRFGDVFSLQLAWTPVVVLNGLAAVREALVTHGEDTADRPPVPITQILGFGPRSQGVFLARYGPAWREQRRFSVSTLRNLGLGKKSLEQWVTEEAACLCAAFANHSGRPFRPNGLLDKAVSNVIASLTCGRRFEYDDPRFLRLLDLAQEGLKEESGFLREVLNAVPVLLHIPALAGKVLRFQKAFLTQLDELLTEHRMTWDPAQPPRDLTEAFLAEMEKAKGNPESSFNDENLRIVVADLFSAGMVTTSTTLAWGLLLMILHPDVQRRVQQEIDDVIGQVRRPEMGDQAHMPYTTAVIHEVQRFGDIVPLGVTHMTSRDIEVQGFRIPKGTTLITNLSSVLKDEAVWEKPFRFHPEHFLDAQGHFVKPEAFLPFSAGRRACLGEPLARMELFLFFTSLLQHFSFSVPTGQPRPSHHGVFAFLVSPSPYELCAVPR

IBS = details: cited from earlier work
[1] = rifaximin 1100 mg/d 14 d (n = 191)
[2] = Pimentel, et al., responders/retreated
[3] = Yang, et al, responders/retreated

CO[C@H]1/C=C/O[C@@]2(C)Oc3c(C)c(O)c4c(O)c(c5c(nc6cc(C)ccn65)c4c3C2=O)NC(=O)/C(C)=C\C=C\[C@H](C)[C@H](O)[C@@H](C)[C@@H](O)[C@@H](C)[C@H](OC(C)=O)[C@@H]1C [Rifaximin, (2S,16Z,18E,20S,21S,22R,23R,24R,25S,26S,27S,28E)-5,6,21,23,25 Pentahydroxy-27-methoxy-2,4,11,16,20,22,24,26-octamethyl-2,7-(epoxypentadeca-(1,11,13)trienimino) benzofuro (4,5-e) pyrido(1,2-a) benzimidazole-1,15(2H)-dione,25-acetate]
Improvement with rifaximin over placebo, IBS-QOL Body image (d-IBS; 1100 mg/d): 37.4%
Improvement with rifaximin over placebo, IBS-QOL Dysphoria (d-IBS; 1100 mg/d): 25.3%
Improvement with rifaximin over placebo, IBS-QOL Food avoidance (d-IBS; 1100 mg/d): 22.1%
Improvement with rifaximin over placebo, IBS-QOL Health worry (d-IBS; 1100 mg/d): 30.6%
Improvement with rifaximin over placebo, IBS-QOL Interference with activity (d-IBS; 1100 mg/d): 22.2%
Improvement with rifaximin over placebo, IBS-QOL Overall score (d-IBS; 1100 mg/d): 28.7%
Improvement with rifaximin over placebo, IBS-QOL Relationship (d-IBS; 1100 mg/d): 39.5%
Improvement with rifaximin over placebo, IBS-QOL Sexual (d-IBS; 1100 mg/d): 24.9%
Improvement with rifaximin over placebo, IBS-QOL Social reaction (d-IBS; 1100 mg/d): 31.6%
Mean change from baseline in IBS-QOL, Body image (d-IBS; [1]): 20.1
Mean change from baseline in IBS-QOL, Dysphoria (d-IBS; [1]): 24.8
Mean change from baseline in IBS-QOL, Food avoidance (d-IBS; [1]): 25.0
Mean change from baseline in IBS-QOL, Health worry (d-IBS; [1]): 16.0
Mean change from baseline in IBS-QOL, Interference with activity (d-IBS; [1]): 22.2
Mean change from baseline in IBS-QOL, Relationship (d-IBS; [1]): 14.9
Mean change from baseline in IBS-QOL, Sexual (d-IBS; [1]): 13.6
Mean change from baseline in IBS-QOL, Social reaction (d-IBS; [1]): 17.3
Mean change from baseline in IBS-QOL, Overall score (d-IBS; rifaximin 1100 mg/d 14 d (n = 191), 0-100 scale): 20.4
Inhibition of cytochrome P450 2C9 (cytochrome P450 2C9): does not inhibit
Inhibition of cytochrome P450 2D6 (cytochrome P450 2D6): does not inhibit
Severe TEAEs, SAEs, deaths (overall in the study): no severe TEAEs, SAEs, or deaths
Subjects with a TEAE (rifaximin treatment period (7 subjects)): 25%
Initial treatment response (IBS; Jolley (~1 yr), IBS-D patients, 1200 mg/day for 10 days): 56% (25/45)
Re-treatment response (at least 1) (IBS; Jolley, IBS-D patients, 2400 mg/day for 10 days): (at least 1): 54% (13/24)
Complete (>90%) relief (IBS; Jolley, IBS-D patients): 11% (5/45)
Complete (>90%) relief upon re-treatment (IBS; Jolley, IBS-D patients): 13% (3/24)
Initial treatment response (IBS; Pimentel, et al. (>6 yr), 169 Non-C IBS patients (Rome III), 400-550 mg TID for 14 days): 75% (111/148)
Re-treatment response (at least 1) (IBS; Pimentel, et al., 1 to 6 re-treatments): (at least 1): >75%
Duration of benefit (IBS; Pimentel, et al.): ~4 m
Re-treatment response, First (IBS; [2]): 54/65
Re-treatment response, Second (IBS; [2]): 38/40
Re-treatment response, Third (IBS; [2]): Third: 17/18
Initial treatment response (IBS; Weinstock (>6 yr), 99 Non-C IBS patients (Rome II), 1200-1650 mg/day for 10 days): 75% (74/99)
Patients who did not require re-treatment (IBS; Weinstock): 27% did not require
Patients who maintained response for mean 1.6 y (IBS; Weinstock): 41% maintained response
Patients with only 1-2 retreatment in 2 y (IBS; Weinstock): 51% only 1-2 retreatment
Initial treatment response (IBS; Yang, et al (1.25 yr), 84 IBS patients (Rome I), 1200 mg/day for 10 days): 69% (58/84)
Re-treatment response (at least 1) (IBS; Yang, et al, 1200 mg/day for 10 days): (at least 1): 100%
Re-treatment response, First (IBS; [3]): 16/16
Re-treatment response, Second (IBS; [3]): 4/4
